Test results reported in patent US20080255052A1, “Immunologic regulation by theta defensins” (priority 2004, published 2008).
Entries after “also recorded” stand apart in the source; their conditions may differ. Bridges are numbered along the chain shown (N, C = ends).

Legend:
[1] = system: Escherichia coli ML35, Staphylococcus aureus 502A, Candida albicans, Cryptococcus neoformans; experiment: Microbicidal and agar diffusion assays in low salt diluents; type: cell-based, bacteria and fungi; settings: low salt conditions, absence of physiologic salt
Method: The antimicrobial activities of various theta defensin compounds were measured using a diffusion assay against bacteria (Staphylococcus aureus 502a and Escherichia coli ML35) and fungi (Candida albicans 16820 and Cryptococcus neoformans 271A). The antimicrobial activities were determined in an agar diffusion assay as described previously (Osapay et al., J. Biol. Chem. 275:12017-12022 (2000)). Briefly, 10-μl wells were bored in a 9-cm^2 plate of agarose, buffered with 10 mM 1,4-piperazine-bis(ethanesulfonic acid) (PIPES), pH 7.4, containing 5 mM glucose, and seeded with 1×10^6 mid-log phase cells. Five-μl aliquots of each peptide, dissolved in 0.01% acetic acid (HOAc) at 10-300 μg/ml, were added to each well. After incubation at 37° C. for 2 h, the seeded agar was overlaid with molten agarose containing 6% trypticase soy broth (for bacteria) or Sabouraud dextrose broth (for fungi). Plates were incubated at 37° C. for 18-24 h, and antimicrobial activity was determined by measuring the diameter of clearing around each well.
(§1) The microbicidal activities of various theta defensin peptides were determined by incubating 2×10^6 CFU/ml with peptides (0-100 μg/ml) in 50 μl of low salt diluents: 10 mM PIPES buffer containing 5 mM glucose, pH 7.4, 10 mM Tris-HCl, pH 7.4, or 10 mM sodium phosphate, pH 7.4, or the same diluents supplemented with 25 to 154 mM NaCl. After 2 h incubation at 37° C., the cell suspensions were diluted 1:50 with 10 mM sodium phosphate buffer, pH 7.4, and exponentially spread with an Autoplate 400 (Spiral Biotech, MD) onto trypticase soy agar (bacteria) or Sabouraud dextrose agar (fungi). After incubation at 37° C. for 18-48 h, colonies were counted and cell survival was expressed as CFU/ml.
FIGS. 2-4 show the results of microbicidal assays performed with various theta defensins and protegrin. Cells were incubated for 2 hours at 37° C. in 10 mM PIPES, pH 7.4, and 5 mM glucose, as described above.
FIGS. 5-8 show antimicrobial activities of various theta defensins as measured using the diffusion assay. […]

LPS-stimulated cells = settings: cited from earlier work
[2] = system: S. aureus and E. coli ML35; experiment: Antimicrobial activities in physiological salts and serum; type: cell-based; settings: NaCl, CaCl2, MgCl2; 10% human serum
Method: as §1
(§2) Staphylocidal activities of theta defensins and protegrin were assayed in various buffers and salt concentrations. Log-phase bacteria were incubated for 2 h at 37° C. with increasing concentrations of the peptides (FIG. 9). Cells were incubated with increasing concentrations of RTD-1 (filled circles), RTD-2 (filled triangles), RTD-3 (filled squares), and PG-1 (filled diamonds) in 10 mM PIPES (FIG. 9A), 10 mM Tris-Cl (FIG. 9B), or 10 mM sodium phosphate (FIG. 9C), at pH 7.4, containing 154 mM NaCl.
The bactericidal activities of theta defensins against E. coli in various physiological salt concentrations were also tested. […] Killing of E. coli ML35 was measured by incubating increasing concentrations of RTD-1 (filled circles), RTD-2 (filled triangles), RTD-3 (filled squares), and PG-1 (filled diamonds) with log-phase E. coli ML35 in 10 mM PIPES, pH 7.4, with CaCl2 (1.2 mM) (FIG. 10A), MgCl2 (0.8 mM) (FIG. 10B), or in control incubations where the divalent salts were omitted (FIG. 10C).
The activities of theta defensins in the presence of serum were also analyzed. […] Dose-dependent bactericidal activities of RTD-1 (filled circles), RTD-2 (filled triangles), RTD-3 (filled squares), and PG-1 (filled diamonds) against bacteria were determined in 10 mM PIPES, pH 7.4, containing 10% normal (for S. aureus) or heat-inactivated (for E. coli) human serum.

Human PBMCs = experiment: TNFα release from LPS-stimulated PBMCs; type: cell-based; settings: LPS 10 μg/ml, RTD-1 0.1-10 μg/ml, supernatants after 3 days
Method: Human PBMCs were prepared by the dextran sedimentation method and resuspended in Iscove's Modified Dulbecco's Medium containing 10% fetal bovine serum. […] Under conditions shown in A-C, aliquots containing 0.5−1×10^6 PBMCs were incubated with 10 μg/ml lipopolysaccharide (LPS) for 2 hours at 37° C., 5% CO2, then treated with RTD-1 (A: 10 μg/ml, B: 1 μg/ml, C, 0.1 μg/ml). Under conditions shown in D-E, a mixture of LPS (10 μg/ml) and RTD-1 (D: 10 μg/ml, E: 1 μg/ml, F: 0.1 μg/ml) were incubated for 2 hours at 37° C. then added to PBMC. Under conditions shown in G-L, control incubations were performed in which PBMCs were incubated with either 10 μg/ml LPS (G), 1 μg/ml phorbol 12-myristate 13-acetate (PMA) (H), varying concentrations of RTD-1 (1:10 μg/ml, J:1 μg/ml, K:0.1 μg/ml), or in media (L). Supernatants from these incubations were harvested after 3 days and soluble TNF was measured using Human TNF ELISA Kit II (BD Biosciences, San Diego). Results were obtained from duplicate incubations.

[3] = system: various theta defensin peptides
Staphylococcus aureus = experiment: Staphylocidal activity in buffers containing physiologic NaCl; type: cell-based; settings: 154 mM NaCl, pH 7.4, 2 h at 37° C.
Method: as §1, §2

[4] = system: primary R5 strain of HIV-1; experiment: Anti-HIV activity in PHA-stimulated PBMCs (p24 ELISA); type: cell-based; settings: day 7 of infection
Method: Phytohaemagglutinin (PHA)-stimulated peripheral blood mononuclear cells (PBMCs), pre-incubated for 3 hours with serial dilutions of defensins, were mixed with 1000 TCID50 (50% infectivity of susceptible cells in tissue culture) of a primary R5 strain of HIV-1. Two hours later, the cells were washed, and fresh medium containing defensin and 20 U/ml of IL-2 was added. Five days after infection, 50% of the medium was removed and replaced with fresh medium containing defensin and IL-2. On day 7 of infection, the levels of HIV protein p24 in supernatant fluid were measured by ELISA. […] The active β-defensin was human β-defensin-3.

Substance: Gly-Phe-Cys-Arg-Cys-Leu-Cys-Arg-Arg-Gly-Val-Cys-Arg-Cys-Ile-Cys-Thr-Arg (cyclo(GFCRCLCRRGVCRCICTR); disulfide 7-12, 5-14, 3-16) [RTD-1, Rhesus theta defensin, macrocyclic 18-amino acid antimicrobial peptide, heterodimer of RTD1a and RTD1b nonapeptides]
- antimicrobial activity in vitro [1]: nearly indistinguishable
- levels of pro-inflammatory cytokines (TNF-α, IL-1β) (LPS-stimulated cells): Reduction
- activity in the presence of physiological salts and serum [2]: active
- extracellular release of TNFα (Human PBMCs): modulates extracellular release of TNF-a

Substance: Purified β-galactosidase
- β-Galactosidase activity measured as the rate of o-nitrophenyl-beta-D-galactopyranoside (ONPG) hydrolysis, compared to that obtained in the absence of peptide [3]: various theta defensins inhibited β-galactosidase enzymatic activity

Substance: RTD-2: naturally occurring theta defensin, homodimer of nine-residue sequences (SEQ ID NO:4, FIG. 1) (cyclo(GFCRCICTRGFCRCICTR); not fully specified (bridges); also: homodimer of nine-residue sequences, cyclic; listed as Macaca mulatta)
- antimicrobial activity in vitro [1]: nearly indistinguishable
- antimicrobial activity in the presence of salt compared to RTD-1 (Staphylococcus aureus): more potent antimicrobial activity; also recorded: higher antimicrobial activity than RTD-1
- activity in the presence of physiological salts and serum [2]: active

Substance: RTD-3: naturally occurring theta defensin, homodimer of nine-residue sequences (SEQ ID NO:6, FIG. 1) (cyclo(GVCRCLCRRGVCRCLCRR); not fully specified (bridges); also: homodimer of nine-residue sequences, cyclic; listed as Macaca mulatta)
- antimicrobial activity in vitro [1]: nearly indistinguishable
- antimicrobial activity in the presence of salt compared to RTD-1 (Staphylococcus aureus): more potent antimicrobial activity; also recorded: higher antimicrobial activity than RTD-1
- activity in the presence of physiological salts and serum [2]: active

Substance: human β-defensin-3: human β-defensin-3, the active β-defensin in the anti-HIV assay (GIINTLQKYYCRVRGGRCAVLSCLPKEEQIGKCSTRGRKCCRRKK; Beta-defensin 103; UniProt P81534 23-67, looked up)
- anti-HIV activity (HIV protein p24 in supernatant) [4]: active
